Experimental findings from patent US11160790B2, “Method of inhibiting Cryptococcus growth using eltrombopag” (priority 2019, dated 2021) are described below.

One experiment deals with C. deuterogattii R265. The experiment can be described thus: Checkerboard titration assay. Type of experiment: cell-based, Cryptococcus deuterogattii. The note with it: 30° C., 48 hours. The method, then:
(§1) Amphotericin B plus 5-flucytosine or fluconazole are combinations often used to treat cryptococcal meningitis. To investigate the synergy between eltrombopag and existing antifungal drugs or other drugs, a checkerboard titration assay was performed on Cryptococcus. Briefly, C. neoformans […] and C. deuterogattii […] cells were cultured overnight at 30° C. and then washed twice with double-distilled water. The cells were diluted to 10^3 cfu/mL with RPMI 1640 medium, and 100 μL of the cell suspension was added to each well of a 96-well polystyrene plate. […] After incubation at 30° C. for 48 hours, the growth of cells under different treatments was assessed by measuring the light absorbance at 600 nm (OD600). This assay allows the determination of fractional inhibitory concentration index (FICI): (MICcombined of drug A/MICalone of drug A)+(MICcombined of drug B/MICalone of drug B). After the checkerboard titration assay, the cells (3 μL) in the 96-well plate were transferred to drug-free YPD agar plates. After incubation at 30° C. for 48 hours, the agar plates were photographed and assessed for cell viability.

In experiment [1] the test system is C. neoformans H99. The experiment can be described thus: XTT-reduction assay of biofilm metabolic activity. The note with it: at respective MICs (1 mg/L amphotericin B, 4 mg/L fluconazole), 24 hours. Type of experiment: cell-based, Cryptococcus neoformans. As for the experimental part: Cryptococcus biofilms, which are composed of Cryptococcus cells and extracellular matrix, enhance the tolerance of Cryptococcus to antifungal agents (such as amphotericin B) and host defense mechanisms. To assess whether eltrombopag impacts biofilm formation in Cryptococcus, an XTT-reduction assay was used to measure the metabolic activity of C. neoformans cells treated with eltrombopag at 37° C. Briefly, C. neoformans […] cells were cultured in YPD medium at 30° C. overnight. The cells were washed twice with phosphate buffered saline (PBS) and resuspended in RPMI 1640 medium with or without eltrombopag at the indicated concentrations. The cell suspension (0.0005 OD600/mL) was added to a 96-well polystyrene plate and incubated at 37° C. for 24 or 48 hours. […] After incubation, the cells were washed three times with PBS and subjected to XTT reduction assay to quantify formazan formation by measuring the light absorbance at 492 nm. The experiments were performed in triplicate, and the results were presented as mean±standard deviation. Statistical significance for the data sets was determined using a two-tailed t test.

Experiment [2] deals with C. neoformans H99. The experiment can be described thus: Checkerboard titration assay. The note with it: 30° C., 48 hours. Type of experiment: cell-based, Cryptococcus neoformans. The method, then:
as §1

In the case of `C[C@@H]1[C@H](O)[C@@H](C)/C=C/C=C/C=C/C=C/C=C/C=C/C=C/[C@H](O[C@@H]2O[C@H](C)[C@@H](O)[C@H](N)[C@@H]2O)C[C@@H]2O[C@](O)(C[C@@H](O)C[C@@H](O)[C@H](O)CC[C@@H](O)C[C@@H](O)CC(=O)O[C@H]1C)C[C@H](O)[C@H]2C(=O)O` [AMB, amphotericin B], the MICalone in the experiment on C. deuterogattii R265 and with C. neoformans H99 [2] was 1 mg/L in each case. Moreover, the entries for the “MICcombined of AMB” value in the experiment with C. deuterogattii R265 (AMB in combination with ETP) and in the experiment on C. neoformans H99 [2] (AMB in combination with ETP) were 1 mg/L and 0.5 mg/L, respectively. In addition, the “reducing the metabolic activity of C. neoformans biofilms, compared with eltrombopag” value in the experiment on C. neoformans H99 [1] was “less effective than eltrombopag”.

For `C=CC[C@@H]1/C=C(\C)C[C@H](C)C[C@H](OC)[C@H]2O[C@@](O)(C(=O)C(=O)N3CCCC[C@H]3C(=O)O[C@H](/C(C)=C/[C@@H]3CC[C@@H](O)[C@H](OC)C3)[C@H](C)[C@@H](O)CC1=O)[C@H](C)C[C@@H]2OC` [FK506, tacrolimus], the MICalone in the experiment on C. deuterogattii R265 and in the experiment with C. neoformans H99 [2] was >16 mg/L each time. For the same compound, the “MICcombined of FK506” value in the experiment with C. deuterogattii R265 (FK506 in combination with ETP) and with C. neoformans H99 [2] (FK506 in combination with ETP) was 0.25 mg/L each time.

In the case of `OC(Cn1cncn1)(Cn1cncn1)c1ccc(F)cc1F` [FLC, fluconazole], the figures for the MICalone in the experiment with C. deuterogattii R265 and in the experiment with C. neoformans H99 [2] were 16 mg/L and 4 mg/L, respectively. Moreover, the figures for the “MICcombined of FLC” value in the experiment with C. deuterogattii R265 (FLC in combination with ETP) and with C. neoformans H99 [2] (FLC in combination with ETP) were 16 mg/L and 8 mg/L, respectively. In the experiment with C. neoformans H99 [1], the “reducing the metabolic activity of C. neoformans biofilms, compared with eltrombopag” value was “less effective than eltrombopag”.
